Assay results from ChEMBL document CHEMBL1955827, “Influence of ring size on the cognition-enhancing activity of DM235 and MN19, two potent nootropic drugs” (Bioorg Med Chem Lett, 2012).
Calls of active or inactive are those of the source. The calls are words filed in the database; no cut-off is given here.

Tested on: Mus musculus
Assay: Neurotoxicity in mouse assessed as effect on spontaneous motility at 1 mg/kg, ip by hole-board test
Type: toxicity, organism-based
Set-up: dose 1 mg/kg, route intraperitoneal
Conditions: in vivo

Compound	Activity
CC(=O)N1CCCC(NC(=O)c2ccccc2)CC1 (stereo unspecified)	Non-toxic
CC(=O)NC1CCN(S(=O)(=O)c2ccc(F)cc2)C1 (stereo unspecified)	Non-toxic
CCC(=O)NC1CCN(C(=O)c2ccccc2)C1 (stereo unspecified)	Non-toxic
CC(=O)NC1CCCN(S(=O)(=O)c2ccc(F)cc2)CCC1	Non-toxic
CCC(=O)N1CCCC(NC(=O)c2ccccc2)CC1 (stereo unspecified)	Non-toxic
CCC(=O)NC1CCCN(C(=O)c2ccccc2)CC1 (stereo unspecified)	Non-toxic
CC(=O)N1CCC(NC(=O)c2ccccc2)C1 (stereo unspecified)	Non-toxic
CCC(=O)N[C@H]1CCN(S(=O)(=O)c2ccc(F)cc2)C1	Non-toxic
CC(=O)N1CCCC(NS(=O)(=O)c2ccc(F)cc2)CC1 (stereo unspecified)	Non-toxic

Tested on: Mus musculus
Assay: Nootropic activity against scopolamine-induced amnesia in mouse assessed as increase in latency period to enter dark room up to 10 mg/kg, ip administered 20 mins prior to test by passive avoidance test (reference value: 91.7 sec)
Type: functional, organism-based
Set-up: dose 10 mg/kg
Conditions: not given

Compound	Activity
CC(=O)N1CCCN(C(=O)c2ccccc2)CCC1	inactive
CCC(=O)N1CCC(NC(=O)c2ccccc2)C1 (stereo unspecified)	inactive
CCC(=O)N1CCCN(C(=O)c2ccccc2)CCC1	inactive
CC(=O)N1CCCN(S(=O)(=O)c2ccc(F)cc2)CCC1	inactive
CCC(=O)NC1CCCN(C(=O)c2ccccc2)CCC1	inactive
CCC(=O)NC1CN(C(=O)c2ccccc2)C1	inactive

Tested on: Mus musculus
Assay: Neurotoxicity in mouse assessed as effect on inspection activity at 1 mg/kg, ip by hole-board test
Type: toxicity, organism-based
Set-up: dose 1 mg/kg, route intraperitoneal
Conditions: in vivo

Compound	Activity
CC(=O)N1CCCC(NC(=O)c2ccccc2)CC1 (stereo unspecified)	Non-toxic
CC(=O)NC1CCN(S(=O)(=O)c2ccc(F)cc2)C1 (stereo unspecified)	Non-toxic
CCC(=O)NC1CCN(C(=O)c2ccccc2)C1 (stereo unspecified)	Non-toxic
CC(=O)NC1CCCN(S(=O)(=O)c2ccc(F)cc2)CCC1	Non-toxic
CCC(=O)N1CCCC(NC(=O)c2ccccc2)CC1 (stereo unspecified)	Non-toxic
CCC(=O)NC1CCCN(C(=O)c2ccccc2)CC1 (stereo unspecified)	Non-toxic
CC(=O)N1CCC(NC(=O)c2ccccc2)C1 (stereo unspecified)	Non-toxic
CCC(=O)N[C@H]1CCN(S(=O)(=O)c2ccc(F)cc2)C1	Non-toxic
CC(=O)N1CCCC(NS(=O)(=O)c2ccc(F)cc2)CC1 (stereo unspecified)	Non-toxic

Tested on: Mus musculus
Assay: Nootropic activity against scopolamine-induced amnesia in mouse assessed as increase in latency time to enter dark room at 1 mg/kg, ip administered 20 mins prior to test by passive avoidance test (reference value: 91.7 sec)
Type: functional
Conditions: route intraperitoneal

Compound	Time
CC(=O)N1CCCC(NC(=O)c2ccccc2)CC1 (stereo unspecified)	70.4 s
CC(=O)NC1CCN(S(=O)(=O)c2ccc(F)cc2)C1 (stereo unspecified)	51 s
CCC(=O)NC1CCN(C(=O)c2ccccc2)C1 (stereo unspecified)	45.4 s
CC(=O)NC1CCCN(S(=O)(=O)c2ccc(F)cc2)CCC1	44.8 s
CCC(=O)N1CCCC(NC(=O)c2ccccc2)CC1 (stereo unspecified)	69.4 s
CCC(=O)NC1CCCN(C(=O)c2ccccc2)CC1 (stereo unspecified)	62.7 s
CC(=O)N1CCC(NC(=O)c2ccccc2)C1 (stereo unspecified)	48.1 s
CCC(=O)N[C@H]1CCN(S(=O)(=O)c2ccc(F)cc2)C1	56.6 s
CC(=O)N1CCCC(NS(=O)(=O)c2ccc(F)cc2)CC1 (stereo unspecified)	45.8 s

Tested on: Mus musculus
Assay: Neurotoxicity in mouse assessed as effect on motor coordination at 1 mg/kg, ip by rotarod test
Type: toxicity, organism-based
Set-up: dose 1 mg/kg, route intraperitoneal
Conditions: in vivo

Compound	Activity
CC(=O)N1CCCC(NC(=O)c2ccccc2)CC1 (stereo unspecified)	Non-toxic
CC(=O)NC1CCN(S(=O)(=O)c2ccc(F)cc2)C1 (stereo unspecified)	Non-toxic
CCC(=O)NC1CCN(C(=O)c2ccccc2)C1 (stereo unspecified)	Non-toxic
CC(=O)NC1CCCN(S(=O)(=O)c2ccc(F)cc2)CCC1	Non-toxic
CCC(=O)N1CCCC(NC(=O)c2ccccc2)CC1 (stereo unspecified)	Non-toxic
CCC(=O)NC1CCCN(C(=O)c2ccccc2)CC1 (stereo unspecified)	Non-toxic
CC(=O)N1CCC(NC(=O)c2ccccc2)C1 (stereo unspecified)	Non-toxic
CCC(=O)N[C@H]1CCN(S(=O)(=O)c2ccc(F)cc2)C1	Non-toxic
CC(=O)N1CCCC(NS(=O)(=O)c2ccc(F)cc2)CC1 (stereo unspecified)	Non-toxic

Tested on: Mus musculus
Assay: Neurotoxicity in mouse assessed as effect on gross behavior at 1 mg/kg, ip by rota-rod test
Type: toxicity, organism-based
Set-up: dose 1 mg/kg, route intraperitoneal
Conditions: in vivo

Compound	Activity
CC(=O)N1CCCC(NC(=O)c2ccccc2)CC1 (stereo unspecified)	Non-toxic
CC(=O)NC1CCN(S(=O)(=O)c2ccc(F)cc2)C1 (stereo unspecified)	Non-toxic
CCC(=O)NC1CCN(C(=O)c2ccccc2)C1 (stereo unspecified)	Non-toxic
CC(=O)NC1CCCN(S(=O)(=O)c2ccc(F)cc2)CCC1	Non-toxic
CCC(=O)N1CCCC(NC(=O)c2ccccc2)CC1 (stereo unspecified)	Non-toxic
CCC(=O)NC1CCCN(C(=O)c2ccccc2)CC1 (stereo unspecified)	Non-toxic
CC(=O)N1CCC(NC(=O)c2ccccc2)C1 (stereo unspecified)	Non-toxic
CCC(=O)N[C@H]1CCN(S(=O)(=O)c2ccc(F)cc2)C1	Non-toxic
CC(=O)N1CCCC(NS(=O)(=O)c2ccc(F)cc2)CC1 (stereo unspecified)	Non-toxic
